Test results as given in patent US20110281762A1, “High throughput screening for anaerobic microorganisms” (priority 2010, published 2011).

Tests used:
[1] = tested on: Bacteroides thetaiotaomicron (Bt); assay: Growth of Bt in minimal medium with a fructose-based carbohydrate as only carbon source; type: cell-based; details: substance as only carbon and energy source; for doubling time: Bt
Description: Bt upregulates its putative fructan PUL when grown on fructose-containing carbohydrates We inoculated minimal medium containing specific fructose-based carbohydrates as the only carbon and energy source with Bt to test if the bacterium is competent to grow on fructans. Bt grew on a broad range of fructose-based glycans, including free fructose, sucrose, levan (high MW fructose polymer with predominantly β2-6-linkages), and fructo-oligosaccharides (FOS; short-chain β2-1 polymers of 2-10 fructose units) (FIG. 1C). However, Bt grew poorly on inulin (β2-1 fructose polymer with an average degree of polymerization of ˜25), with growth only apparent three days after inoculation. Doubling times on simple monosaccharides and disaccharide were similar to one another.
(§1) Culturing bacteria. Bacteria were cultured in TYG and MM as described previously. The following bacteria were used: Bt (VPI-5482), B. caccae (ATCC-43185), B. ovatus (ATCC-8483), B. fragilis (NCTC-9343), B. uniformis (ATCC-8492), and B. vulgatus (ATCC-8482). Growth curves in MM were obtained using a Powerwave (Biotek) reading OD600 every 30 min from anaerobic cultures at 37° C.

[2] = target: periplasmic domain of BT1754 (BT1754-PD; residues 29-343) (Bacteroides thetaiotaomicron, UniProt Q8A6X1); assay: Isothermal calorimetry binding to the periplasmic domain of BT1754
Description: The periplasmic domain of the hybrid two-component system BT1754 binds to monomeric fructose. One of the key unanswered questions concerning the HTCS family, and many extracellular sensory systems, is the identity of the molecular triggers for signaling events. […] (FIG. 2B). […] As PBPs are known to bind small molecules such as sugars, we expressed the periplasmic domain of BT1754 (BT1754-PD; residues 29-343) in a recombinant form and tested for binding to a range of monosaccharides and fructan-derived oligosaccharides to see if direct interaction with a specific carbohydrate is the means of signal perception in BT1754.
Isothermal titration calorimetry. Measurements were carried out essentially as described previously, except that a Microcal VP-ITC machine was used, and proteins were dialyzed into 20 mM Tris-HCl, pH8.0. The assumption that n=1 for BT1762 binding to levan was based on the structure of the starch binding SusD.

Bt-ΔBT1754 = assay: Growth of isogenic mutant Bt-ΔBT1754 in minimal media; type: cell-based, Bacteroides thetaiotaomicron; details: fructose-based minimal media
Description: The hybrid two-component system BT1754 is required for efficient fructan utilization by Bt. We assessed the ability of an isogenic mutant of Bt lacking the BT1754 gene to grow in a panel of fructose-based minimal media (MM) to test if upregulation of the PUL was dependent upon the HTCS signaling sensor. An in-frame, unmarked deletion of BT1754 was constructed using a standard counter-selectable allele-exchange procedure. […] Complementation of this mutant was achieved by introducing the genomic fragment containing BT1754 and its 5′ intergenic upstream promoter region in trans.
as §1

[3] = tested on: all six Bacteroides species; assay: Growth of six Bacteroides species on fructose-based glycans; type: cell-based
Description: (§2) In all six Bacteroides species, the HTCS is adjacent to a predicted fructokinase, a putative inner membrane monosaccharide importer, and GH32-family glycoside hydrolases. In each genome, except that of B. vulgatus, the syntenic regions also contain a susC/susD homologous pair. […] All Bacteroides species tested, except B. vulgatus, were able to grow efficiently using one of the long-chain fructans, inulin or levan. The inability of B. vulgatus to grow on long-chain fructans is consistent with the absence of a susC/susD-like pair within its locus. B. caccae, B. ovatus, B. fragilis and B. uniformis can utilize inulin with efficiency similar to their use of glucose. This contrasts with Bt inulin use, which is only observed after three days (FIG. 5). Bt was the only species tested able to use levan, which was particularly striking when considering the overall similarity in PUL structure between Bt, B. caccae, and B. ovatus.
as §1

Bt and B. caccae = assay: Dietary inulin in gnotobiotic mice bi-associated with Bt and B. caccae, relative fecal proportion by qPCR; type: in vivo, germ-free Swiss-Webster mice
Description: (§3) Two groups of 8-12-week old, germ-free mice were colonized with equivalent quantities (10^8 colony forming units, CFU) of Bt and B. caccae or Bt and B. vulgatus. Each mouse was maintained on a standard polysaccharide-rich diet for the first 7 days of colonization and then switched to a diet in which the sole polysaccharide was inulin (10% w/w) for an additional 14 days. Mice were individually housed throughout the experiment to ensure no cross inoculation could occur and bedding was changed every two days. Total bacterial colonization density was determined by assessing the CFUs in feces over 21 days. The change in each species' relative abundance before and after dietary inulin supplementation was assessed using species-specific primers in a quantitative PCR assay.
In the previous experiment, inulin was the sole polysaccharide in the diet. We wondered whether we would observe the same inulin-induced increase in B. caccae relative to Bt if other polysaccharides were also present in the diet. To test this, gnotobiotic mice were co-colonized with Bt and B. caccae and maintained on the standard diet with inulin supplementation in the water (1% w/v). Over the 14 days the mice ingested an average of 117±6 mg of inulin daily via the water (compared to 355±7 mg/day with the inulin diet). Fecal samples were tested by qPCR over the course of the 21-day experiment for relative levels of Bt or B. caccae.
We decided to feed mice a custom diet deficient in all polysaccharides and supplement inulin in the water to determine whether a lower dose of inulin in the absence of other polysaccharides was sufficient to provide B. caccae a competitive advantage over Bt in vivo. Under this experimental paradigm the mice consumed an average of 97 mg of inulin per day. After. 14 days on inulin-water supplementation, the proportion of B. caccae increased by 26±8% (FIG. 6D). […] The wide range of polysaccharides present in the standard diet allows Bt to compete effectively with B. caccae even in the presence of inulin.
(§4) Bacterial colonization and density determination of germ-free mice. Germ-free Swiss-Webster mice were maintained in gnotobiotic isolators and fed an autoclaved standard diet (Purina LabDiet 5K67) or custom diet (Bio-Serv, http://bio-serv.com/), in accordance with A-PLAC, the Stanford IACUC. Mice were bi-associated using oral gavage (10^8 CFU of each bacterial species). Relative densities of bacteria were determined by qPCR using strain-specific primers.

B. caccae = assay: Growth on long-chain fructan; type: cell-based; details: efficiency similar to use of glucose
Description: as §2, §1

B. fragilis = assay: Growth on long-chain fructan; type: cell-based; details: efficiency similar to use of glucose
Description: as §2, §1

B. ovatus = assay: Growth on long-chain fructan; type: cell-based; details: efficiency similar to use of glucose
Description: as §2, §1

B. uniformis = assay: Growth on long-chain fructan; type: cell-based; details: efficiency similar to use of glucose
Description: as §2, §1

Bt and B. vulgatus = assay: Dietary inulin in gnotobiotic mice bi-associated with Bt and B. vulgatus, relative fecal proportion by qPCR; type: in vivo, germ-free Swiss-Webster mice
Description: as §3, §4

B. vulgatus = assay: Growth on long-chain fructan; type: cell-based
Description: as §2, with “Bt was the only species tested able to use levan, which was particularly striking when considering the overall similarity in PUL structure between Bt, B. caccae, and B. ovatus.” left out
Genomic content of Bacteroides species predicts changes in microbiota composition induced by an inulin-based diet. The differences in ability to utilize fructans between the Bacteroides species implies that the relative success of a species within a gut ecosystem may be determined, in part, by the abundance and type of fructan in the host diet. […] We constructed defined two-member communities of Bacteroides species within the intestines of gnotobiotic mice to test how model microbiotas respond in vivo to dietary inulin, which, unlike levan, is available in pure form in quantities sufficient to conduct such a study. […]

[4] = after two weeks on inulin diet (day 21), n=7 mice

periplasmic domain of BT1754 (BT1754-PD; residues 29-343), sequence (Q8A6X1 entry or part of it, change not shown): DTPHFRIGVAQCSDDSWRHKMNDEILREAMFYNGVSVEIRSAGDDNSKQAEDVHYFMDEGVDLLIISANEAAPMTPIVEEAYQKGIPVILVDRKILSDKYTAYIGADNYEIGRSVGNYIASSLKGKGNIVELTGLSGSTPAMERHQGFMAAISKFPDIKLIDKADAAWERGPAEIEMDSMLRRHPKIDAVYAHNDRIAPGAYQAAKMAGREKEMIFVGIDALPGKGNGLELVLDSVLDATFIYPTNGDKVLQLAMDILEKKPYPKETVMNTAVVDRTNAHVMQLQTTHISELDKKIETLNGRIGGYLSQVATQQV

| Compound | growth of Bt [1] | growth of Bt-ΔBT1754 (Bt-ΔBT1754) | growth [3] | doubling time [1] | other results |
| --- | --- | --- | --- | --- | --- |
| O=C(CO)[C@@H](O)[C@H](O)[C@H](O)CO [fructose] | grew on | retarded growth | competent for growth | – | Kd [2]: ~2000 nM |
| O=C[C@H](O)[C@H](O)[C@H](O)CO [ribose] | – | – | – | – | interaction with BT1754-PD ([2]; isothermal calorimetry): does not interact |
| OC[C@H]1O[C@@](CO)(O[C@H]2O[C@H](CO)[C@@H](O)[C@H](O)[C@H]2O)[C@@H](O)[C@@H]1O [sucrose] | grew on | retarded growth | competent for growth | – | – |
| fructo-oligosaccharides [FOS] | grew on | failed to grow | competent for growth | 5.6 h | – |
| inulin | grew poorly | failed to grow | – | 96.4 h | B. caccae proportion of community (Bt and B. caccae; [4]): 51±6%; Bt proportion of community (Bt and B. caccae; [4]): approximately 49±6%; increase in proportion of B. caccae (Bt and B. caccae; custom diet deficient in all polysaccharides, inulin in the water, 14 days): 26±8%; increase in proportion of B. caccae (Bt and B. caccae; inulin-only diet experiment, day 6 to day 21): 36±7%; B. caccae proportion of community (Bt and B. caccae; six days after change to inulin-based diet (10% w/w)): 20±4%; Bt proportion of community (Bt and B. caccae; six days after change to inulin-based diet (10% w/w, sole polysaccharide), 87±3% before switch): 80±4%; change in relative colonization of Bt and B. caccae versus controls (Bt and B. caccae; standard diet with inulin in the water (1% w/v), 14 days): no statistical difference; inulin utilization (B. caccae): can utilize; inulin utilization (B. fragilis): can utilize; inulin utilization (B. ovatus): can utilize; inulin utilization (B. uniformis): can utilize; change in community composition (Bt and B. vulgatus; after 6 days on inulin-based diet): did not exhibit any significant trend; Bt abundance (Bt and B. vulgatus; day 21, inulin enriched diet, 74±3% on day 6, p=0.1, n=3 mice): 84±5%; inulin utilization (B. vulgatus): unable to utilize |
| levan | grew on | failed to grow | – | 2.7 h | – |
